Test results reported in PubChem BioAssay AID2060497 (Molecular Pharmacology Branch, DTP, NCI, 2025).

Test system: 317291-083-R-J1-PDC complex spheroids, viability
Assay: Anticancer human tumor 317291-083-R-J1-PDC patient-derived soft tissue sarcoma cell line growth inhibition [GQUAD]
Conditions: for IC50: curve of first compound; for viability, T/C: stronger effect = lower value
Method in brief: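 Tumor cells were grown as complex spheroids with HUVEC endothelial cells and mesenchymal stem cells as stroma. G-quadruplex stabilizers were combined with targeted agents over half-log dilutions from near the clinical Cmax, or from 10 microM.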

[1] = second compound 0.0316 µM, first compound 0.0316 µM
[2] = second compound 0.0316 µM, first compound 0.1 µM
[3] = second compound 0.0316 µM, first compound 0.316 µM
[4] = second compound 0.0316 µM, first compound 1 µM
[5] = second compound 0.0316 µM, first compound 3.16 µM
[6] = second compound 0.0316 µM, first compound 10 µM
[7] = second compound 0.1 µM, first compound 0.0316 µM
[8] = second compound 0.1 µM, first compound 0.1 µM
[9] = second compound 0.1 µM, first compound 0.316 µM
[10] = second compound 0.1 µM, first compound 1 µM
[11] = second compound 0.1 µM, first compound 3.16 µM
[12] = second compound 0.1 µM, first compound 10 µM
[13] = second compound 0.316 µM, first compound 0.0316 µM
[14] = second compound 0.316 µM, first compound 0.1 µM
[15] = second compound 0.316 µM, first compound 0.316 µM
[16] = second compound 0.316 µM, first compound 1 µM
[17] = second compound 0.316 µM, first compound 3.16 µM
[18] = second compound 0.316 µM, first compound 10 µM
[19] = second compound 1 µM, first compound 0.0316 µM
[20] = second compound 1 µM, first compound 0.1 µM
[21] = second compound 1 µM, first compound 0.316 µM
[22] = second compound 1 µM, first compound 1 µM
[23] = second compound 1 µM, first compound 3.16 µM
[24] = second compound 1 µM, first compound 10 µM
[25] = second compound 3.16 µM, first compound 0.0316 µM
[26] = second compound 3.16 µM, first compound 0.1 µM
[27] = second compound 3.16 µM, first compound 0.316 µM
[28] = second compound 3.16 µM, first compound 1 µM
[29] = second compound 3.16 µM, first compound 3.16 µM
[30] = second compound 3.16 µM, first compound 10 µM
[31] = second compound 10 µM, first compound 0.0316 µM
[32] = second compound 10 µM, first compound 0.1 µM
[33] = second compound 10 µM, first compound 0.316 µM
[34] = second compound 10 µM, first compound 1 µM
[35] = second compound 10 µM, first compound 3.16 µM
[36] = second compound 10 µM, first compound 10 µM
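Note: spheroids exposed to compounds for one week before readout.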
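Throughout, for viability, T/C: percent viability relative to DMSO vehicle wells taken as 100%.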

Compound: CCCS(=O)(=O)Nc1ccc(F)c(C(=O)c2c[nH]c3ncc(-c4ccc(Cl)cc4)cc23)c1F + Cc1cnc(CNC(=O)c2c(=O)c3ccc(N4CCCN(C)CC4)nc3n3c2sc2ccccc23)cn1
- IC50 (second compound 0.0316 µM): 4020 nM
- IC50 (second compound 0.1 µM): 3920 nM
- IC50 (second compound 0.316 µM): 179 nM
- IC50 (second compound 1 µM): < 31.6 nM
- IC50 (second compound 3.16 µM): < 31.6 nM
- IC50 (second compound 10 µM): < 31.6 nM
- viability, T/C [1]: 89.2%
- viability, T/C [2]: 100%
- viability, T/C [3]: 99.8%
- viability, T/C [4]: 91.3%
- viability, T/C [5]: 60.6%
- viability, T/C [6]: 9.94%
- viability, T/C [7]: 64.3%
- viability, T/C [8]: 56.2%
- viability, T/C [9]: 67.1%
- viability, T/C [10]: 49.9%
- viability, T/C [11]: 59.4%
- viability, T/C [12]: 9.77%
- viability, T/C [13]: 43%
- viability, T/C [14]: 68.4%
- viability, T/C [15]: 43.6%
- viability, T/C [16]: 38.1%
- viability, T/C [17]: 37.5%
- viability, T/C [18]: 16.5%
- viability, T/C [19]: 55.6%
- viability, T/C [20]: 23.6%
- viability, T/C [21]: 43.1%
- viability, T/C [22]: 18.8%
- viability, T/C [23]: 19.7%
- viability, T/C [24]: 5.79%
- viability, T/C [25]: 10.6%
- viability, T/C [26]: 11.7%
- viability, T/C [27]: 10.6%
- viability, T/C [28]: 11.8%
- viability, T/C [29]: 21.4%
- viability, T/C [30]: 0.18%
- viability, T/C [31]: 10.2%
- viability, T/C [32]: 6.4%
- viability, T/C [33]: 24.3%
- viability, T/C [34]: 8.2%
- viability, T/C [35]: 16.7%
- viability, T/C [36]: 8.36%

Compound: COc1cc(C2c3cc4c(cc3C(OC3OC5COC(C)OC5C(O)C3O)C3COC(=O)C23)OCO4)cc(OC)c1O (centres undefined) + Cc1cnc(CNC(=O)c2c(=O)c3ccc(N4CCCN(C)CC4)nc3n3c2sc2ccccc23)cn1
- IC50 (second compound 0.0316 µM): 233 nM
- IC50 (second compound 0.1 µM): 69.2 nM
- IC50 (second compound 0.316 µM): 66.7 nM
- IC50 (second compound 1 µM): < 31.6 nM
- IC50 (second compound 3.16 µM): < 31.6 nM
- IC50 (second compound 10 µM): < 31.6 nM
- viability, T/C [1]: 81.6%
- viability, T/C [2]: 68.3%
- viability, T/C [3]: 41.4%
- viability, T/C [4]: 27.7%
- viability, T/C [5]: 15.4%
- viability, T/C [6]: 11.6%
- viability, T/C [7]: 57.5%
- viability, T/C [8]: 46.3%
- viability, T/C [9]: 35.3%
- viability, T/C [10]: 24.9%
- viability, T/C [11]: 15.6%
- viability, T/C [12]: 9.12%
- viability, T/C [13]: 70.5%
- viability, T/C [14]: 39.3%
- viability, T/C [15]: 19.3%
- viability, T/C [16]: 18.8%
- viability, T/C [17]: 16.2%
- viability, T/C [18]: 10.7%
- viability, T/C [19]: 35.9%
- viability, T/C [20]: 28.4%
- viability, T/C [21]: 22.7%
- viability, T/C [22]: 18.7%
- viability, T/C [23]: 9.1%
- viability, T/C [24]: 8.25%
- viability, T/C [25]: 22.9%
- viability, T/C [26]: 41.3%
- viability, T/C [27]: 14.7%
- viability, T/C [28]: 13.1%
- viability, T/C [29]: 9.56%
- viability, T/C [30]: 3.72%
- viability, T/C [31]: 28.6%
- viability, T/C [32]: 14.6%
- viability, T/C [33]: 9.56%
- viability, T/C [34]: 10.8%
- viability, T/C [35]: 5.33%
- viability, T/C [36]: 11.2%
